Reference: ChEMBL document CHEMBL3627633, “Synthesis of potent urease inhibitors based on disulfide scaffold and their molecular docking studies” (Bioorg Med Chem, 2015)
Calls of active or inactive are those of the source. No cut-off for these calls is given here.

Assays:
Serpentes = experiment: Inhibition of snake venom NPP1 using bis(p-nitrophenyl)phosphate as substrate assessed as p-nitrophenol release preincubated for 30 mins by spectrophotometry
[1] = Cytotoxicity against Wistar rat CC1 cells assessed as cell viability at 1 to 20 ug/ml after 48 hrs by MTT assay; format: cell-based; conditions: cc-1, 48 h
[2] = target: Carbonic anhydrase (Homo sapiens) (UniProt P00918+P43166+P00915+P07451+P23280+O43570+Q9ULX7+Q16790+P22748+Q8N1Q1+Q9Y2D0+P35218); experiment: Inhibition of carbonic anhydrase (unknown origin); format: protein assay
[3] = target: Cholinesterase (Equus caballus) (UniProt P81908); experiment: Inhibition of equine serum butyrylcholinesterase using […] as substrate preincubated for 15 mins followed by substrate addition measured every 1 min by Ellman's method
[4] = Cytotoxicity against mouse 3T3L1 cells assessed as cell viability at 1 to 20 ug/ml after 48 hrs by MTT assay; format: cell-based; conditions: 3t3-l1, 48 h
Urease = Urease (Canavalia ensiformis, UniProt P07374); experiment: Inhibition of jack bean urease using urea as substrate assessed as ammonia production incubated for 15 mins by indophenol method
Urease, sequence (P07374 whole entry): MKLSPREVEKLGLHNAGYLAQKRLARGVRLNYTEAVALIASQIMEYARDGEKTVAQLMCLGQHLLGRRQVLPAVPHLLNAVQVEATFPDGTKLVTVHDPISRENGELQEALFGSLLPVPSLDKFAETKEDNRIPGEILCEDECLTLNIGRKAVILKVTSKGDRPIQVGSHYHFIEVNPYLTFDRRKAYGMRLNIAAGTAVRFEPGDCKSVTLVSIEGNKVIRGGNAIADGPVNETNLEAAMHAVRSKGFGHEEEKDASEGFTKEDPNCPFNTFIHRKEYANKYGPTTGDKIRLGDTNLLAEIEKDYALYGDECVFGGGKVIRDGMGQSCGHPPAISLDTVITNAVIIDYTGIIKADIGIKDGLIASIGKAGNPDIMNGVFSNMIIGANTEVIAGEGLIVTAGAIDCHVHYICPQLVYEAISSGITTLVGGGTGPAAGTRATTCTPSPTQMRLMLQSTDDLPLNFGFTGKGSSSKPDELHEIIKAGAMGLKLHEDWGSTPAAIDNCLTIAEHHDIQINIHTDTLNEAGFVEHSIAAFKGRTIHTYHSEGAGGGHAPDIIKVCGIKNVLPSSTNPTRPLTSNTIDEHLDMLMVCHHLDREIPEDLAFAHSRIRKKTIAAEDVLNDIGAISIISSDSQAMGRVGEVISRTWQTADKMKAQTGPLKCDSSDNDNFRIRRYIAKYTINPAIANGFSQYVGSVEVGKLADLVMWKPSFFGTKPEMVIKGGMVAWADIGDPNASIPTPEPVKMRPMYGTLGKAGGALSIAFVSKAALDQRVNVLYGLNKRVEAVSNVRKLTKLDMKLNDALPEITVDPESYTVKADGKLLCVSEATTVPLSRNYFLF

Cholinesterase (Equus caballus), sequence (P81908 whole entry): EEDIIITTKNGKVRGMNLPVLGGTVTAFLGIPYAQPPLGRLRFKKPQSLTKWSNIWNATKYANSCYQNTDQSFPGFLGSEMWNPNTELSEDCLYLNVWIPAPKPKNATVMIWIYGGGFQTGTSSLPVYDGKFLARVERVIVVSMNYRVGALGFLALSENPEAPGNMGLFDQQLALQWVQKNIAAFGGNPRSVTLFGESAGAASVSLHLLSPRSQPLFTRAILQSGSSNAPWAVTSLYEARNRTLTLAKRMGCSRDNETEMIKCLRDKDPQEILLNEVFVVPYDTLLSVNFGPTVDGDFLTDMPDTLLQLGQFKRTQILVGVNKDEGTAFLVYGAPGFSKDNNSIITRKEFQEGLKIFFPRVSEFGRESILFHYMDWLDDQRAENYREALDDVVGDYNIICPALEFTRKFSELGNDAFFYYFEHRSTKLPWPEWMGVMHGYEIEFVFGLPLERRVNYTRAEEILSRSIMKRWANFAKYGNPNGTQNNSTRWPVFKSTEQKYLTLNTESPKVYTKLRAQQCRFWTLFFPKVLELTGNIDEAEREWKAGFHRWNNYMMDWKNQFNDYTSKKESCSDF

| SMILES | inhibition (Serpentes) | Activity [1] | inhibition [2] | inhibition [3] | Activity [4] | IC50 (Urease) |
| --- | --- | --- | --- | --- | --- | --- |
| Fc1cccc(NC(=S)Nc2ccccc2SSc2ccccc2NC(=S)Nc2cccc(F)c2)c1 | inactive | Non-toxic | inactive | inactive | Non-toxic | 1.5 µM |
| S=C(Nc1ccc(Br)cc1)Nc1ccccc1SSc1ccccc1NC(=S)Nc1ccc(Br)cc1 | inactive | Non-toxic | inactive | inactive | Non-toxic | 4.3 µM |
| NC(N)=S [THIOUREA] | – | – | – | – | – | 19.5 µM |
| S=C(Nc1ccccc1SSc1ccccc1NC(=S)NC12CC3CC(CC(C3)C1)C2)NC12CC3CC(CC(C3)C1)C2 | inactive | Non-toxic | inactive | inactive | Non-toxic | 17.6 µM |
| Cc1ccccc1NC(=S)Nc1ccccc1SSc1ccccc1NC(=S)Nc1ccccc1C | inactive | Non-toxic | inactive | inactive | Non-toxic | 1.1 µM |
| COc1ccccc1NC(=S)Nc1ccccc1SSc1ccccc1NC(=S)Nc1ccccc1OC | inactive | Non-toxic | inactive | inactive | Non-toxic | 1.7 µM |
| Cc1cccc(NC(=S)Nc2ccccc2SSc2ccccc2NC(=S)Nc2cccc(C)c2)c1 | inactive | Non-toxic | inactive | inactive | Non-toxic | 3.7 µM |
| S=C(Nc1ccc(Cl)cc1)Nc1ccccc1SSc1ccccc1NC(=S)Nc1ccc(Cl)cc1 | inactive | Non-toxic | inactive | inactive | Non-toxic | 1.6 µM |
| S=C(Nc1ccc(Cl)c(Cl)c1)Nc1ccccc1SSc1ccccc1NC(=S)Nc1ccc(Cl)c(Cl)c1 | inactive | Non-toxic | inactive | inactive | Non-toxic | 3.2 µM |
| S=C(Nc1ccccc1Br)Nc1ccccc1SSc1ccccc1NC(=S)Nc1ccccc1Br | inactive | Non-toxic | inactive | inactive | Non-toxic | 18.6 µM |
| O=[N+]([O-])c1ccc(NC(=S)Nc2ccccc2SSc2ccccc2NC(=S)Nc2ccc([N+](=O)[O-])cc2)cc1 | inactive | Non-toxic | inactive | inactive | Non-toxic | 6.4 µM |
| Cc1ccc(NC(=S)Nc2ccccc2SSc2ccccc2NC(=S)Nc2ccc(C)cc2)cc1 | inactive | Non-toxic | inactive | inactive | Non-toxic | 1.4 µM |
| S=C(Nc1cccc(Br)c1)Nc1ccccc1SSc1ccccc1NC(=S)Nc1cccc(Br)c1 | inactive | Non-toxic | inactive | inactive | Non-toxic | 10.3 µM |
| O=[N+]([O-])c1cccc(NC(=S)Nc2ccccc2SSc2ccccc2NC(=S)Nc2cccc([N+](=O)[O-])c2)c1 | inactive | Non-toxic | inactive | inactive | Non-toxic | 12.3 µM |
| COc1ccc(NC(=S)Nc2ccccc2SSc2ccccc2NC(=S)Nc2ccc(OC)cc2)cc1 | inactive | Non-toxic | inactive | inactive | Non-toxic | 4.2 µM |
| Fc1ccccc1NC(=S)Nc1ccccc1SSc1ccccc1NC(=S)Nc1ccccc1F | inactive | Non-toxic | inactive | inactive | Non-toxic | 0.7 µM |
| COc1cccc(NC(=S)Nc2ccccc2SSc2ccccc2NC(=S)Nc2cccc(OC)c2)c1 | inactive | Non-toxic | inactive | inactive | Non-toxic | 14.6 µM |
| S=C(Nc1ccccc1)Nc1ccccc1SSc1ccccc1NC(=S)Nc1ccccc1 | inactive | Non-toxic | inactive | inactive | Non-toxic | 15.1 µM |
| S=C(Nc1ccccc1Cl)Nc1ccccc1SSc1ccccc1NC(=S)Nc1ccccc1Cl | inactive | Non-toxic | inactive | inactive | Non-toxic | 3.4 µM |
| FC(F)(F)c1ccc(NC(=S)Nc2ccccc2SSc2ccccc2NC(=S)Nc2ccc(C(F)(F)F)cc2)cc1 | inactive | Non-toxic | inactive | inactive | Non-toxic | 1.5 µM |
| Fc1ccc(NC(=S)Nc2ccccc2SSc2ccccc2NC(=S)Nc2ccc(F)cc2)cc1 | inactive | Non-toxic | inactive | inactive | Non-toxic | 0.4 µM |
